{"source": "patent US8501792B2", "about": "“Treating cancer with desthiazolyl ritonavir” (priority 2008, dated 2013)", "key": {"Purified mammalian Hsp90": {"tested_on": "Purified mammalian Hsp90", "test": "Hsp90 binding on CM-5 BIAcore chip (surface plasmon resonance)", "details": "RU value versus drug concentration; FIG. 11", "source_text": "Inhibition of Hsp90 can be evaluated by surface plasmon resonance studies of a compound of formula I, using a CM-5 Biacore chip on which Hsp90 (Stressgen, Ann Arbor) has been immobilized. This method can also be used to evaluate the chaperoning activity of a compound of formula I by evaluation of luciferase refolding. See Examples 4 and 9.\nPurified mammalian Hsp90 was attached to a CM-5 BIAcore chip through an NHS ester linkage. After attachment of the Hsp90 and blocking the chip with BSA, M1 drug or a 17-AAG control was circulated through a microfluidic circuit and change in refractive index was measured by quantification of the RU value for each drug concentration. In the case of the 17-AAG control the binding was saturable and based on the kon and koff measurements, the KD was estimated to be in the 1 microM range. […] This means that there are significant differences in the binding of M-1 and may indicate alteration of the Hsp90 structure."}, "ER+ lines": {"tested_on": "ER+ lines", "test": "MTT proliferation assay, ER+ lines (IC90)", "assay_type": "cell-based", "details": "difference to ritonavir, read-out: IC90 values, amount less than ritonavir", "method": "M1 inhibition of proliferation of MCF7, T47D and MDA-MB-231 cell lines was studied. Cells (n=2000/well) were seeded in 96 well plates with drug or vehicle (DMSO) on D1 and after 48 h the cell number was determined by MTT assay. Each assay was performed with 8 measurements for each data point (See FIG. 1, wherein graph A corresponds to MCF7, graph B corresponds to T47D, and graph C corresponds to MDA-MB-231)."}, "HER2": {"tested_on": "HER2", "test": "Surface HER2 flow cytometry in SKBR3 cells", "assay_type": "cell-based", "method": "SKBR3 cells were plated at a density of 80,000 cells/well in 6-well plates. After 18 hours, cells were exposed to ritonavir (33 μM), Desthiazolyl Ritonavir (M1) (33 μM), or DMSO. After 24 hours, cells were trypsinized, spun down, and resuspended in 50 μL of Staining Buffer (PBS 1% BSA). Cells were then incubated with anti-HER2 Ab FITC (Chemicon International; MAB4083F) for 30 minutes (on-ice and in the dark). Control cells were incubated with mouse IgG1 FITC (Biolytex). Cells were washed two times with Washing Buffer (PBS 0.1% Tween-20), resuspended in 100 μL of PBS, and acquired using FACSCalibur flow cytometer."}, "HIV": {"tested_on": "HIV", "details": "MT-4 cell based assay; Denissen et al. 1997; cited from earlier work"}, "[1]": {"tested_on": "H522 adenocarcinoma non-small cell lung cancer cell", "test": "MTT proliferation assay, H522", "assay_type": "cell-based", "details": "10 to 80 μmol/L, 48 hours, FIG. 18", "method": "H522 adenocarcinoma non-small cell lung cancer cell proliferation was measured in 96-well plates by a 3-(4,5-dimethylthiazol-2-yl)-2,5 diphenyltetrazolium bromide (MTT) assay that measures reduction of MTT in 96-well plates (see Ohno M, Abe T. J Immunol Methods, 1991 Dec. 15; 145(1-2):199-203). The cells were exposed to 10 to 80 μmol/L ritonavir, M1 or DMSO vehicle for 48 hours and proliferation was subsequently quantified by MTT assay. The MTT was added to the medium at the endpoint and the plate was incubated for 2 hours. The plate was then centrifuged in an Allegra plate centrifuge at 2000 rpm for 5 minutes. The medium was removed, and the pellet was dissolved in 100 μL of DMSO per well. The pellet was dissolved using a gently vibrating platform. The plates were read with a BioTek Synergy plate reader in colorimetric mode at 540 nm. Each assay was performed in octuplicate for each data point."}}, "data": [{"smiles": "CC(C)c1nc(CN(C)C(=O)NC(C(=O)NC(Cc2ccccc2)CC(O)C(N)Cc2ccccc2)C(C)C)cs1", "note": "(stereo not drawn) [M1, desthiazolyl ritonavir]", "values": [{"measurement": "binding to Hsp90, saturability", "setting": "Purified mammalian Hsp90", "result": "the binding is not saturable"}, {"measurement": "IC90", "setting": "ER+ lines", "result": "> 30", "unit": "µM"}, {"measurement": "anti-HER2 functionality / expression of surface HER2", "setting": "HER2; SKBR3, 33 μM, 24 hours, FIG. 7", "result": "exhibited anti-HER2 functionality"}, {"measurement": "reduction of the expression of surface HER2", "setting": "HER2; SKBR3 line, P<0.05", "result": "up to 80%"}, {"measurement": "inhibition of HIV replication", "setting": "HIV", "result": "does not inhibit HIV replication"}, {"measurement": "measured cell proliferation compared to cells exposed to ritonavir or DMSO", "setting": "[1]", "result": "lower"}]}]}
